Test results published in US7531533B2, “6-Membered heterocyclic compound and use thereof” (Asahi Kasei Pharma Corporation, priority 2005, dated 2009).

Biological target: T1, human EP4 receptor (Homo sapiens, UniProt P35408)
T1 construct: expressed in transfected cells
Assay: Agonist activity measurement (cAMP production) using human EP4 receptor expressing HEK293 cells
Assay type: cell-based
Conditions: test compound concentration of 10 μM, HEK293 stably expressing human EP4
Experimental: Agonist Activity Measurement Using Human EP4 Receptor Expressing Cells
In order to investigate EP4 receptor agonist activity of the compounds of the present invention, cAMP production was measured by using HEK293 in which the human EP4 receptor was stably expressed.
As a result of searching for prostaglandin E receptors using Refseq Database, the gene information of human EP4 (NM_000958) receptor was obtained. On the basis of the sequence information, the human EP4 receptor gene was cloned by PCR using human cDNA as a template in a conventional manner to establish HEK293 in which the human EP4 receptor was stably expressed. These cells were inoculated on a 96-well poly-D-lysine coated plate at a density of 2×10^4 cells/well, and cultured for 1 day. The medium in the wells was removed by aspiration, 80 μL of Dulbecco's modified Eagle's medium was added to each well, and the cells were incubated at 37° C. for 15 minutes. Then, 20 μL of an assay medium (Dulbecco's modified Eagle's medium containing 100 mM HEPES and 1 mM IBMX) containing PGE2 or a test compound (at 5-fold concentration of the final concentration) was added to start the reaction, and the reaction was allowed at 37° C. for 30 minutes. Then, the medium was removed by aspiration, and the reaction was terminated by adding 100 μL of Assay/Lysis Buffer included in cAMP Screen Kit (produced by Applied Biosystems). Then, the cells were incubated at 37° C. for 30 minutes, and used as a sample for cAMP quantification. By using this sample, amount of cAMP in the sample was quantified according to the method attached to cAMP Screen Kit.

T1 sequence (P35408 whole entry): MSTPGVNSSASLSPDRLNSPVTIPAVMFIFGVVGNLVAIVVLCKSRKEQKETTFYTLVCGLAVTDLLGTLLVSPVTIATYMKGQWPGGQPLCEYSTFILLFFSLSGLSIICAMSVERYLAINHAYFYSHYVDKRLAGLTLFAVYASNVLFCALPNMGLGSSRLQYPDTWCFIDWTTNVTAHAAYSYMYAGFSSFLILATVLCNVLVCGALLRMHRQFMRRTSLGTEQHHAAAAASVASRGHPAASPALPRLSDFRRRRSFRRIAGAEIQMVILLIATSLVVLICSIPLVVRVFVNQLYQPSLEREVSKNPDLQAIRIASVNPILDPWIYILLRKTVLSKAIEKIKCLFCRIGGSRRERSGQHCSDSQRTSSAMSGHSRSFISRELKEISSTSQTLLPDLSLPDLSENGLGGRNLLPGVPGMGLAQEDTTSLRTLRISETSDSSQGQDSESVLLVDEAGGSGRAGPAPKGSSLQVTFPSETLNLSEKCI

Structure (SMILES)	increase of cAMP
COc1cccc(CC(O)CCN2CCCC(=O)N2CCc2ccc(C(=O)O)cc2)c1 (stereo not shown) [IAH-H005, 4-(2-{2-[3-hydroxy-4-(3-methoxyphenyl)butyl]-6-oxotetrahydro-pyridazin-1-yl}ethyl)benzoic acid]	Increase of cAMP was observed
O=C(O)c1ccc(CCN2C(=O)CCCN2CCC(O)c2ccccc2)cc1 (stereo not shown) [IAH-H002]	Increase of cAMP was observed
O=C(O)C=Cc1cccc(CN2C(=O)CCCN2CCC(O)Cc2cccc(C(F)(F)F)c2)c1 (stereo not shown) [IOH-H001, 3-{3-[(2-{3-hydroxy-4-[3-(trifluoromethyl)phenyl]butyl}-6-oxotetrahydropyridazin-1-yl)methyl]phenyl}acrylic acid]	Increase of cAMP was observed
O=C(O)c1cccc(OCCN2C(=O)CCCN2CCC(O)Cc2cccc(C(F)(F)F)c2)c1 (stereo not shown) [IDH-H001, 3-[2-(2-{3-hydroxy-4-[3-(trifluoromethyl)phenyl]butyl}-6-oxotetrahydropyridazin-1-yl)ethyloxy]benzoic acid]	Increase of cAMP was observed
O=C(O)c1ccc(CCCN2C(=O)CCCN2CCC(O)Cc2cccc(C(F)(F)F)c2)cc1 (stereo not shown) [IGH-H001, 4-[3-(2-{3-hydroxy-4-[3-(trifluoromethyl)phenyl]butyl}-6-oxotetrahydropyridazin-1-yl)propyl]benzoic acid]	Increase of cAMP was observed
O=C(O)c1ccc(CCN2C(=O)CCCN2CCC(O)Cc2cccc(Cl)c2)cc1 (stereo not shown) [IAH-H024, 4-[2-(2-{4-[3-chlorophenyl]-3-hydroxybutyl}-6-oxotetrahydropyridazin-1-yl)ethyl]benzoic acid]	Increase of cAMP was observed
O=C(O)c1ccc(CCN2C(=S)CCCN2CCC(O)Cc2cccc(C(F)(F)F)c2)cc1 (stereo not shown) [ITH-H001, 4-[2-(2-{3-hydroxy-4-[3-(trifluoromethyl)phenyl]butyl}-6-thioxotetrahydropyridazin-1-yl)ethyl]benzoic acid]	Increase of cAMP was observed
O=C(O)c1ccc(CCN2C(=O)CCCN2CCC(O)c2ccc(F)cc2)cc1 (stereo not shown) [IAH-H003, 4-(2-{2-[3-hydroxy-3-(4-fluorophenyl)propyl]-6-oxotetrahydro-pyridazin-1-yl}ethyl)benzoic acid]	Increase of cAMP was observed
O=C(O)c1ccc(CCCN2C(=O)CCCN2CCC(O)Cc2cccc(C(F)(F)F)c2)o1 (stereo not shown) [IHH-H001, 5-[3-(2-{3-hydroxy-4-[3-(trifluoromethyl)phenyl]butyl}-6-oxotetrahydropyridazin-1-yl)propyl]furan-2-carboxylic acid]	Increase of cAMP was observed
O=C(O)CCc1cccc(CN2C(=O)CCCN2CCC(O)Cc2cccc(C(F)(F)F)c2)c1 (stereo not shown) [IPH-H001, 3-{3-[(2-{3-hydroxy-4-[3-(trifluoromethyl)phenyl]butyl}-6-oxotetrahydropyridazin-1-yl)methyl]phenyl}propionic acid]	Increase of cAMP was observed
O=C(O)Cc1cccc(CN2C(=O)CCCN2CCC(O)Cc2cccc(C(F)(F)F)c2)c1 (stereo not shown) [ILH-H001, 2-{3-[(2-{3-hydroxy-4-[3-(trifluoromethyl)phenyl]butyl}-6-oxotetrahydropyridazin-1-yl)methyl]phenyl}acetic acid]	Increase of cAMP was observed
O=C(O)COc1cccc(CN2C(=O)CCCN2CCC(O)Cc2cccc(C(F)(F)F)c2)c1 (stereo not shown) [ICH-H001, 2-{3-[(2-{3-hydroxy-4-[3-(trifluoromethyl)phenyl]butyl}-6-oxotetrahydropyridazin-1-yl)methyl]phenyloxy}acetic acid]	Increase of cAMP was observed
O=C(O)Cc1ccc(CN2C(=O)CCCN2CCC(O)Cc2cccc(C(F)(F)F)c2)cc1 (stereo not shown) [IKH-H001, 2-{4-[(2-{3-hydroxy-4-[3-(trifluoromethyl)phenyl]butyl}-6-oxotetrahydropyridazin-1-yl)methyl]phenyl}acetic acid]	Increase of cAMP was observed
